Laboratory results: patent US9556256B2, “Inhibition of cancer metastasis” (The Board of Trustees of The University of Arkansas, priority 2006, dated 2017)
Entries after “also recorded” stand apart in the source; their conditions may differ.

Columns and labels:
[1] = target: P-Selectin (Mus musculus, UniProt Q01102); test: P-Selectin binding to 4T1 cells by flow cytometry; settings: for Inhibition of P-Selectin binding to 4T1 cells: P-Selectin pre-treated with chondroitin sulfate, various concentrations; for P-Selectin binding to 4T1 cells after treatment of the cells: cells pre-treated with the agent
Method: Unless specified otherwise, flow cytometry was conducted as follows. Acquisition and analysis of data was performed on an EPICS®™ XL™.flow cytometer (Beckman Coulter, Inc., Fullerton, Calif.). Cells were passed to new flasks 24 hours before measuring lectin binding. The subconfluent monolayer of cells was detached with Cellstripper (Mediatech, Inc. Herndon, Va.) and washed with Dulbecco's phosphate buffered saline with Ca++ and Mg++ (Mediatech, Inc. Herndon, Va.). Cells were transferred to FACS buffer (Dulbecco's Phosphate Buffered Saline, 1% BSA and 0.1% Sodium Azide), counted and diluted to ˜1-2×10^6/ml. Monoclonal antibodies were added to a final concentration of 10 μg/ml. Cells were incubated on ice for 30 minutes, washed twice with FACS buffer, before the addition of FITC-conjugated streptavidin (2 μg/ml) for lectin analysis or FITC-conjugated goat anti-mouse immunoglobulin for monoclonal analysis. Cells were then washed and fixed with paraformaldehyde, before analysis by flow cytometry.
Recombinant E- and P-Selectin/Fc (human IgG) were purchased from R&D systems, Minneapolis, Minn. These recombinant molecules and FITC-conjugated anti-human IgG were used for binding analyses in flow cytometry assays. Human and murine recombinant selectins were used for human and murine cells, respectively.
Binding of recombinant P-Selectin to cells was examined after treatment with heparinase and chondroitinase ABC or in the presence of various concentrations of heparin and chondroitin sulfate A, B, C, and E (Seikagaku America, Falmouth, Mass.).

[2] = tested on: 4T1 cells; test: Binding of thrombin-treated Calcein-AM-labeled mouse platelets to 4T1 cells; type: cell-based; settings: 100 U/ml final concentration
Method: To examine if heparin can block the interaction of mouse platelets with tumor cells, 4T1 cells were mixed with Calcein-AM-labeled mouse platelets in the presence of mouse thrombin with or without heparin. Mouse thrombin was added to stimulate relocation of P-Selectin to platelet surface and tumor cells were then analyzed by flow cytometry for Calcein-AM staining, indicating platelet attachment. […] Blood was collected into sodium citrate (0.38% w/v) from naive mice and platelets were isolated from plasma by centrifugation. Platelet were washed and labeled with 5 μM final Calcein-AM (Molecular Probes, Eugene, Oreg., USA) for 15 minutes at 37° C. Platelets were then washed and incubated with 1 U/ml thrombin (Haematologic Technologies Inc, Essex Junction, Vt.) at 37° C. for 10 minutes. Heparin (Baxter Healthcare Corp., Deerfield, Ill., 100 U/ml final concentration) was then added to the mixture of platelets and thrombin, and incubated with 4T1 cells in flow cytometry tubes, for 15 minutes at room temperature, then acquired and analyzed by flow cytometry.

[3] = tested on: tumor cells; settings: clinically relevant dose; reference 8; cited from earlier work
[4] = tested on: 4T1 cells; test: Spontaneous lung metastasis of 4T1 tumors in BALB/c mice after heparin, clonogenic assay; type: in vivo, mouse; settings: 100 units 30 minutes before tumor cell inoculation; 26 days after inoculation
Method: BALB/c female mice (6-8 weeks old) were purchased from Harlan (Indianapolis, Ind.). Tumors were established as described earlier (9). Briefly, each mouse was inoculated subcutaneously in the abdominal mammary gland with 5×10^4 4 T1 cells. To establish a functional correlation between P-Selectin ligand expression of 4T1 cells and their metastatic ability in vivo, we injected mice with 100 units of heparin 30 minutes before tumor cell inoculation. Mice were sacrificed 26 days after tumor inoculation, lungs were harvested and metastatic cells were detected by clonogenic assay. […] All mice that were injected with PBS as control developed lung metastasis.

[5] = tested on: 4T1 cells; test: Lung colonies in mice with 4T1 fat pad tumors injected daily with CS; type: in vivo, mouse; settings: 30 days after transplant
Method: FIG. 20. Chondroitin sulfate inhibits metastasis. Mice were injected with 4T1 cells into fact pads. After tumors were palpable (3-4 days after transplant) they were daily injected with CS intraperitoneally (ip) or subcutaneously (sc). Micer were sacrificed 30 days after transplant and lung colonies were quantified. Saline injection was used as a control. Comparisons were made between groups treated with CS and the saline group as control. NS, not significant. Average and SD with three animals per group is shown.
Mice were injected with 4T1 cells into fat pads. After tumors were palpable (3-4 days after transplant) the mice were daily injected with CS intraperitoneally (ip) or subcutaneously (sc). The mice were sacrificed 30 days after transplant and lung colonies were quantified. CS was dissolved in saline for injection. Saline control injection by either sc or ip routes produced similar results.

[6] = tested on: uPA; test: Real-time PCR gene expression in MCF-7 cells after 5azadC: uPA; type: cell-based, human; settings: positive control gene
Method: (§1) Real-time PCR was conducted to quantify mRNAs of five genes in four different human breast cancer tumor lines. The assayed genes were Syndecan-1 (SDC-1), Neuropilin-1 (NRP-1), Syndecan-4 (SDC-4), MCSP, and estrogen receptor 1. The tumor lines were MCF7, MDA-MD-468 (MDA-468), MDA-MB-231 (MDA-231), and MDA-MET. MCF-7 and MDA-468 are less aggressive. MDA-231 is an aggressive cell line, and MDA-MET is a subline of MDA-231 that metastasizes to bone. The quantity of each mRNA was assayed in comparison to 18s RNA. NRP-1, SDC-4 and MCSP expression was higher in the two more aggressive cell lines than in either of the two less aggressive cell lines. […] MCF-7 and MDA-468 are epithelial-like, while both MDA-231 and MDA-MET cells are mesenchymal type. Thus, high expression of NRP-1, MCSP and SDC-4 may be related to an epithelial to mesenchymal transition, which is a phenotypic event associated with more metastasis and aggressive growth.
(§2) In this experiment, gene expression levels were assayed by real-time PCR and comparison to 18S RNA levels. The dependence of gene expression on methylation levels was tested by treating tumor cells with varying levels of 5-aza-2′-deoxycytidine (5azadC), which is a demethylating agent (Table 6). Methylation of CpG islands is a well-known mechanism of gene control. Methylation decreases expression of genes whose promoters are methylated. The expression of NRP-1, CHST11, and MCPG each increased with increasing 5azadC concentration, which indicates they are under methylation control, with increased methylation repressing expression of the genes. Urokinase (uPA) was used as a positive control.

[7] = tested on: Synd-4; test: Real-time PCR gene expression in MCF-7 cells after 5azadC: Synd-4; type: cell-based, human; settings: for Relative expression level of Synd-4 compared with no 5azadC: MCF-7 cells
Method: as §1, §2

[8] = tested on: NRP-1; test: Real-time PCR gene expression in MCF-7 cells after 5azadC: NRP-1; type: cell-based, human; settings: for Relative expression level of NRP-1 compared with no 5azadC: MCF-7 cells
Method: as §1, §2

[9] = tested on: MCPG; test: Real-time PCR gene expression in MCF-7 cells after 5azadC: MCPG; type: cell-based, human; settings: for Relative expression level of MCPG compared with no 5azadC: MCF-7 cells
Method: as §1, §2

[10] = tested on: CHST11; test: Real-time PCR gene expression in MCF-7 cells after 5azadC: CHST11; type: cell-based, human; settings: for Relative expression level of CHST11 compared with no 5azadC: MCF-7 cells
Method: as §1, §2

Sequence of P-Selectin (Q01102 with tags, fused parts or gaps limits assumed): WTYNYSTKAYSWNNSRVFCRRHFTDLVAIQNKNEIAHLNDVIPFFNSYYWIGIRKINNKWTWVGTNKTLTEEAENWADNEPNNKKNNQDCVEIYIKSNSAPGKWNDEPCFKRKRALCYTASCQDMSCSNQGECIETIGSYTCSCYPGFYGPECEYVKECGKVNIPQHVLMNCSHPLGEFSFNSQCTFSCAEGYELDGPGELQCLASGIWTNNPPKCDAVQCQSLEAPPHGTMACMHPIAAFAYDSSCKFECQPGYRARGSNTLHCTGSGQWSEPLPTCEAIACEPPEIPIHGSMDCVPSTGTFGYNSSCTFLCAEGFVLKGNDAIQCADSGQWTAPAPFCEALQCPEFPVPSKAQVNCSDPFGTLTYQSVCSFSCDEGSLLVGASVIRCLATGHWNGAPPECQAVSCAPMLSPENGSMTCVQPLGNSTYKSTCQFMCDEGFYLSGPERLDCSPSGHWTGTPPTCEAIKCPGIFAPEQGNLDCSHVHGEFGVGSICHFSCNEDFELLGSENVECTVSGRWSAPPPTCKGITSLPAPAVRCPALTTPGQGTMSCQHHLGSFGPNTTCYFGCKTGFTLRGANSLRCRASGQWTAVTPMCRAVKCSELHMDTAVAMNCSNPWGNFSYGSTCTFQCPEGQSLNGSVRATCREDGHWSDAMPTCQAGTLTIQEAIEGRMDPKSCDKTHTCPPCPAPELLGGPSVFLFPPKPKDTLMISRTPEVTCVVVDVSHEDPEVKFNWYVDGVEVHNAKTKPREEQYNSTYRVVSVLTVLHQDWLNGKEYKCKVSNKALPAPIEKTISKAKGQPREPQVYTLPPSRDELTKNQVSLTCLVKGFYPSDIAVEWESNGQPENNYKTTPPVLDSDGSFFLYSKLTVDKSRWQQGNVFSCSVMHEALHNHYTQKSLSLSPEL

dermatan sulfate [CS B]
Concentration dependence of inhibition of P-Selectin binding ([1]; 0.005-5.0 mg/ml): inhibitory effects only at higher concentrations
Inhibition of P-Selectin binding to 4T1 cells [1]: inhibited P-Selectin binding

chondroitin sulfate E [CS E]
Concentration giving complete inhibition of P-Selectin binding ([1]; 4T1 cells): 0.5 mg/mL
Inhibition of P-Selectin binding to 4T1 cells [1]: inhibited P-Selectin binding; also recorded: effectively inhibit

Neuraminidase: Neuraminidase (Vibrio cholerae) from Sigma, used at 50 mU/ml
P-Selectin binding to 4T1 cells after treatment of the cells [1]: did not change

O=C(O)CN(CCN(CC(=O)O)CC(=O)O)CC(=O)O [EDTA]
P-Selectin reactivity with 4T1 cells in presence of EDTA ([1]; high concentrations (20 and 40 mM)): inhibited P-Selectin reactivity only at high concentrations
P-Selectin reactivity with 4T1 cells in presence of EDTA ([1]; low concentration (10 mM)): not blocked

Heparin
Binding of thrombin treated platelets to tumor cells [2]: reduced
Lung metastasis in experimental models [3]: inhibited lung metastasis
Mice with complete absence of metastases in lung [4]: six mice out of total of seven
Number of mice positive for established lung metastases, Positive (total) [4]: *1 (7)
Effective dose for inhibition of P-Selectin binding, as concentration ([1]; corresponds to 120 units): 0.7 mg/mL
Inhibition of P-Selectin binding to cells ([1]; sLex-Neg 4T1 cell variant, recombinant P-Selectin pre-incubated with 0.7-120 Units heparin): efficiently inhibited P-Selectin binding to cells in a dose dependent manner
Effective dose for inhibition of P-Selectin binding ([1]; sLex-Neg 4T1 cells, FIG. 10): 120 units

chondroitin sulfate [CS]
Metastasis (lung colonies) compared to saline control ([5]; 1 mg subcutaneously daily): decreased metastasis
Metastasis (lung colonies) compared to saline control ([5]; 10 mg subcutaneously daily): decreased metastasis
Metastasis (lung colonies) compared to saline control ([5]; intraperitoneally daily): did not appear to

[Na+].[O-][Cl+2]([O-])[O-] [sodium chlorate]
P-Selectin binding to 4T1 cells after treatment of the cells [1]: elimination of P-Selectin binding in a majority of the cells

chondroitin sulfate C [CS C]
Inhibition of P-Selectin binding to 4T1 cells [1]: minimal inhibitory effects

chondroitin sulfate A [CS A]
Inhibition of P-Selectin binding to 4T1 cells [1]: minimal inhibitory effects

Nc1ncn([C@H]2C[C@H](O)[C@@H](CO)O2)c(=O)n1 [5azadC, 5-aza-2′-deoxycytidine]
Relative expression level of uPA compared with no 5azadC ([6]; 0.5 μM): 2.2
Relative expression level of uPA compared with no 5azadC ([6]; 1 μM): 2.9
Relative expression level of uPA compared with no 5azadC ([6]; 5 μM): 3.2
Relative expression level of uPA compared with no 5azadC ([6]; 20 μM): 3.9
Relative expression level of Synd-4 compared with no 5azadC ([7]; 0.5 μM): 0.7
Relative expression level of Synd-4 compared with no 5azadC ([7]; 1 μM): 0.5
Relative expression level of Synd-4 compared with no 5azadC ([7]; 5 μM): 0.8
Relative expression level of Synd-4 compared with no 5azadC ([7]; 20 μM): 0.6
Syndecan-4 expression with 5azadC treatment ([7]; trend over 0.5-20 μM): decreased or remained approximately constant
Relative expression level of NRP-1 compared with no 5azadC ([8]; 0.5 μM): 1.04
Relative expression level of NRP-1 compared with no 5azadC ([8]; 1 μM): 1.50
Relative expression level of NRP-1 compared with no 5azadC ([8]; 5 μM): 1.72
Relative expression level of NRP-1 compared with no 5azadC ([8]; 20 μM): 1.71
Expression of NRP-1 with increasing 5azadC concentration ([8]; trend over 0.5-20 μM): increased
Relative expression level of MCPG compared with no 5azadC ([9]; 0.5 μM): 1.3
Relative expression level of MCPG compared with no 5azadC ([9]; 1 μM): 1.4
Relative expression level of MCPG compared with no 5azadC ([9]; 5 μM): 1.7
Relative expression level of MCPG compared with no 5azadC ([9]; 20 μM): 2.1
Expression of MCPG with increasing 5azadC concentration ([9]; trend over 0.5-20 μM): increased
Relative expression level of CHST11 compared with no 5azadC ([10]; 0.5 μM): 1.34
Relative expression level of CHST11 compared with no 5azadC ([10]; 1 μM): 1.68
Relative expression level of CHST11 compared with no 5azadC ([10]; 5 μM): 3.7
Relative expression level of CHST11 compared with no 5azadC ([10]; 20 μM): 4.00
Expression of CHST11 with increasing 5azadC concentration ([10]; trend over 0.5-20 μM): increased
